Values of other authors as cited in patent US10813877B2, “Oral care products and methods” (MGE HOLDINGS LLC, priority 2016, dated 2020).

System: cells
Details: ex vivo

[H]/N=C(\N/C(=N/[H])NCCCCCCNC(=N)NC(=N)Nc1ccc(Cl)cc1)Nc1ccc(Cl)cc1 [chlorhexidine]
cytotoxic effect on cells: cytotoxic effect
